The results in this text go back to US8940784B2, “Water-soluble CC-1065 analogs and their conjugates” (priority 2006, dated 2015).

Structures can show the parent of a compound that is named as a salt.

Data set [1] deals with human lung carcinoma cell line A549. Description: In vitro cytotoxicity, clone forming assay in A549 cells. It is filed as cell-based. The settings on record: A549, 24 h exposure, 12 days cultivation. The procedure: In vitro cytotoxicity of compounds (+)-8a-e and (+)-4a-e: Adherent cells of line A549 were sown in triplicate in 6 multiwell plates at concentrations of 10^2, 10^3, 10^4, and 10^5 cells per cavity. Culture medium was removed after 24 h and cells were washed hi the incubation medium Ultraculture (UC, serum-free special medium, purchased from BioWhittaker Europe, Verviers, Belgium). Incubation with compounds (+)-8a-e and (+)-4a-e was then performed in Ultraculture medium at various concentrations for 24 h. All substances were used as freshly prepared solutions in DMSO (Merck, Darmstadt, Germany) diluted with incubation medium to a final concentration of 1% DMSO in the wells. After 24 h of exposure the test substance was removed and the cells were washed with fresh medium. Cultivation was done at 37° C. and 7.5% CO2 in air for 12 days. The medium was removed and the clones were dried and stained with Löffler's methylene blue (Merck, Darmstadt, Germany). They were then counted macroscopically.
The IC50 values are based on the relative clone forming rate, which was determined according to the following formula: relative clone forming rate [%]=100×(number of clones counted after exposure)/(number of clones counted in the control).
Liberation of the drugs from their glycosidic prodrugs was achieved by addition of 4.0 U·mL^−1 β-D-galactosidase (EC 3.2.1.23, Grade X, purchased from Sigma Germany, Deisenhofen, Germany) to the cells during incubation with the substances.

Data set [2] relates to MDA-MB-231 cells (estrogen-independent human breast cancer cell line). Description: ADEPT in vivo experiment, orthotopic breast tumor SCID mouse model. The procedure: Compound (+)-8a was evaluated in an orthotopic breast tumor SCID mouse model using the ADEPT concept. Female SCID mice were inoculated with 1×10^6 MDA-MB-231 cells (estrogen-independent human breast cancer cell line) suspended in 25 μl sterile PBS in the mammary fad pat of the 4th mammary complex. Tumors were allowed to grow and ADEPT therapy was started after tumor volumes reached a detectable size. Mice were treated according to the treatment schedule in FIG. 17 and received two treatment cycles of a monoclonal anti-human urokinase plasminogen activator receptor (uPAR) antibody conjugated with β-Galactosidase, uPAR*β-Gal, in PBS followed by three injections with conjugate (+)-8a in 1% DMSO/NaCl solution. Control groups received either antibody-enzyme and 1% DMSO/NaCl solution (antibody-enzyme only group), PBS and conjugate (conjugate only group), or PBS and 1% DMSO/NaCl solution (control group).
In vivo evaluation of compound (+)-8a in an orthotopic breast tumor SCID mouse model using the ADEPT concept: Before tumor cell implantation, female SCID mice were anesthetized by peritoneal injection of 75 mg/kg ketamine hydrochloride with 15 mg/kg xylazine. 1×10^6 MDA-MB-231 cells (estrogen-independent human breast cancer cell line) suspended in 25 μl sterile phosphate-buffered saline (PBS) were then implanted into the mammary fad pat of the 4th mammary complex. After implantation, mice were inspected daily for body weight loss, general condition, and tumor formation. On day 21, animals were randomized in groups of 5-12 mice (control, antibody-enzyme only, prodrug only, and ADEPT therapy). On days 22 and 30, mice were injected intravenously with PBS (control, prodrug only groups) or 50 μg of a monoclonal anti-human urokinase plasminogen activator receptor (uPAR) antibody conjugated with β-Galactosidase, uPAR*β-Gal, in PBS (antibody-enzyme only, ADEPT therapy groups). On days 24, 26, 28, 32, 34, and 36, mice were injected intravenously with 1% DMSO/NaCl solution (control, antibody-enzyme only groups) or 104 μg of (+)-8a in 1% DMSO/NaCl solution (prodrug only, ADEPT therapy groups). Mice were sacrificed on day 38 and tumors were excised, weighed, placed in phosphate-buffered 4% formalin for 16 hours at room temperature, and embedded in paraffin. Tissue sections (2.5 μm) were obtained, stained with hematoxylin and eosin (H & E), and inspected by routine microscopic examinations. For immunohistochemistry, 2.5 μm sections from formalin-fixed and paraffin-embedded tissues, were mounted on slides, deparaffinized in xylene and rehydrated in ethanol/water dilutions. Slides for Ki67 staining were pretreated by boiling in a microwave oven (5×5 min) in citrate buffer (pH 6.0) for antigen retrieval. Endogenous peroxidases were inactivated by treatment with 3% hydrogen peroxide for 10 min. Tris-buffered 10% rabbit serum solution (Dako, Hamburg, Germany, No. X 0902) was then added to block nonspecific protein binding and slides were incubated with murine anti-human Ki67 (Dianova, Hamburg, Germany, No. dia 505) for 60 min (2 μg/ml) followed by exposure to biotinylated rabbit anti-mouse F(ab′)2-fragment (Dako, No. E 0413, 16.8 μg/ml) for 30 min. Sections were then incubated with avidin-peroxidase solution (Dako, No. P 364), stained with aminoethylcarbazole (AEC substrate solution, Sigma), rinsed in water, and finally counterstained with hematoxylin.

Setting [3] is: without addition of β-D-galactosidase.
[4] abbreviates: with addition of 4.0 U/mL β-D-galactosidase.

Broadly, the IC50 is the concentration at which inhibition is half-maximal. With `CC(Cl)C1CN(C(=O)c2cc3cc(OCCN(C)C)ccc3[nH]2)c2cc(O)c3ccccc3c21` (single isomer, unassigned; (+)) [(+)-4a, (1,10)-anti-1-(10-Chloroethyl)-5-hydroxy-3-[(5-(2-(N,N-dimethylamino)ethoxy)indol-2-yl)carbonyl]-1,2-dihydro-3H-benz[e]indole-hydrochloride], in data set [1] (setting [3]), the IC50 came to 0.75 nM.

Turning to `CC(Cl)C1CN(C(=O)c2cc3cc(OCCN4CCOCC4)ccc3[nH]2)c2cc(O)c3ccccc3c21` (single isomer, unassigned; (+)) [(+)-4b, (+)-{(1,10)-anti-1-(10-Chloroethyl)-5-hydroxy-3-[(5-(2-(morpholin-4-yl)ethoxy)indol-2-yl)carbonyl]-1,2-dihydro-3H-benz[e]indole-hydrochloride}], the half-inhibitory concentration (IC50) in data set [1] (setting [3]) came out at 3.7 nM.

In data set [1] (setting [3]), `COc1cc2[nH]c(C(=O)N3CC(C(C)Cl)c4c3cc(O)c3ccccc43)cc2cc1OCCN(C)C` (single isomer, unassigned; (+)) [(+)-4c, (+)-{(1,10)-anti-1-(10-Chloroethyl)-5-hydroxy-3-[(5-(2-(N,N-dimethylamino)ethoxy)-6-methoxy-indol-2-yl)carbonyl]-1,2-dihydro-3H-benz[e]indole-hydrochloride}] gave an IC50 of 0.2 nM.

Take `CC(Cl)C1CN(C(=O)c2cc3cc(OCC4CCN(C)CC4)ccc3[nH]2)c2cc(O)c3ccccc3c21` (single isomer, unassigned; (+)) [(+)-4d, (+)-{(1,10)-anti-1-(10-Chloroethyl)-5-hydroxy-3-[(5-((1-methylpiperidin-4-yl)methoxy)indol-2-yl)carbonyl]-1,2-dihydro-3H-benz[e]indole-hydrochloride}]: half-maximal inhibition in data set [1] (setting [3]) (IC50) required 0.8 nM.

In turn, `CC(Cl)C1CN(C(=O)c2cc3cc(NC(=O)CN(C)C)ccc3[nH]2)c2cc(O)c3ccccc3c21` (single isomer, unassigned; (+)) [(+)-4e] came in with an IC50 in data set [1] (setting [3]) of 3.8 nM.

In the case of `CC(Cl)C1CN(C(=O)c2cc3cc(OCCN4CCOCC4)ccc3[nH]2)c2cc(O[C@@H]3O[C@H](CO)[C@H](O)[C@H](O)[C@H]3O)c3ccccc3c21` (single isomer, unassigned; (+)) [(+)-8b, [(+)-(1,10)-anti-1-(10-Chloroethyl)-3-[(5-(2-(morpholin-4-yl)ethoxy)-indol-2-yl)carbonyl]-1,2-dihydro-3H-benz[e]indol-5-yl]-β-D-galactopyranoside], the IC50 in data set [1] (setting [4]) stood at 2.5 nM; in data set [1] (setting [3]), 1500 nM.

Consider `CC(Cl)C1CN(C(=O)c2cc3cc(OCC4CCN(C)CC4)ccc3[nH]2)c2cc(O[C@@H]3O[C@H](CO)[C@H](O)[C@H](O)[C@H]3O)c3ccccc3c21` (single isomer, unassigned; (+)) [(+)-8d, [(+)-(1,10)-anti-1-(10-Chloroethyl)-3-[(5-((1-methylpiperidin-4-yl)methoxy)-indol-2-yl)carbonyl]-1,2-dihydro-3H-benz[e]indol-5-yl]-β-D-galactopyranoside], for which the half-inhibitory concentration (IC50) is 0.75 nM in data set [1] (setting [4]) and 830 nM in data set [1] (setting [3]).

`C[C@@H](Cl)[C@@H]1CN(C(=O)c2cc3cc(OCCN(C)C)ccc3[nH]2)c2cc(O[C@@H]3O[C@H](CO)[C@H](O)[C@H](O)[C@H]3O)c3ccccc3c21` [(1S,10R)-8a and (1R,10S)-8a′, [(1,10)-anti-1-(10-Chloroethyl)-3-[(5-(2-(N,N-dimethylamino)ethoxy)-indol-2-yl)carbonyl]-1,2-dihydro-3H-benz[e]indol-5-yl]-β-D-galactopyranoside]: the IC50 turned out to be 1.2 nM in data set [1] (setting [4]) and 7900 nM in data set [1] (setting [3]).

As for `C[C@@H](Cl)[C@@H]1CN(C(=O)c2cc3cc(OCCN(C)C)ccc3[nH]2)c2cc(O[C@@H]3O[C@H](CO)[C@H](O)[C@H](O)[C@H]3O)c3ccccc3c21` [(+)-8a, [(1,10)-anti-1-(10-Chloroethyl)-3-[(5-(2-(N,N-dimethylamino)ethoxy)-indol-2-yl)carbonyl]-1,2-dihydro-3H-benz[e]indol-5-yl]-β-D-galactopyranoside], the IC50 in data set [1] (with addition of 4.0 U/mL β-D-galactosidase, listed as (1S,10R)-8a) turned out to be 0.75 nM; in data set [1] (without addition of β-D-galactosidase, listed as (1S,10R)-8a) it was 3600 nM. The “average primary tumor volume” value in data set [2] (ADEPT therapy (uPAR*β-Gal followed by (+)-8a i.v.), after one treatment cycle) was 0.23±0.07 cm^3. Besides, the mean tumor volume in data set [2] (ADEPT therapy (uPAR*β-Gal followed by (+)-8a i.v.), after two treatment cycles) was 0.33±0.13 cm^3. The “necrotic tissue within tumors” value in data set [2] (ADEPT therapy versus vehicle-treated mice) is “more necrotic tissue within tumors”. Moreover, the tolerability result in data set [2] (ADEPT therapy, all animals) is “well tolerated”. For the same compound, the blood parameters result in data set [2] (treated mice compared to controls) was “not altered”. Further, the “inhibitory effect on tumor growth with respect to vehicle control” value in data set [2] (treatment with the substance alone (antibody-enzyme only or conjugate only group)) is listed as “no inhibitory effect”.

Regarding `COc1cc2[nH]c(C(=O)N3C[C@@H]([C@@H](C)Cl)c4c3cc(O[C@@H]3O[C@H](CO)[C@H](O)[C@H](O)[C@H]3O)c3ccccc43)cc2cc1OCCN(C)C` [(+)-8c, [(+)-(1S,10R)-1-(10-Chloroethyl)-3-[(5-(2-(N,N-dimethylamino)ethoxy)-6-methoxy-indol-2-yl)carbonyl]-1,2-dihydro-3H-benz[e]indol-5-yl]-β-D-galactopyranoside], the IC50 in data set [1] (setting [4]) amounted to 0.22 nM; in data set [1] (setting [3]), 940 nM.

Consider `C[C@@H](Cl)[C@@H]1CN(C(=O)c2cc3cc(NC(=O)CN(C)C)ccc3[nH]2)c2cc(O[C@@H]3O[C@H](CO)[C@H](O)[C@H](O)[C@H]3O)c3ccccc3c21` [(+)-8e], for which the IC50 in data set [1] (setting [4]) came out at 5.9 nM; in data set [1] (setting [3]), 7700 nM.
